# According to ChEMBL document CHEMBL1138173, “Synthesis and biological evaluation of photoaffinity labeled fusidic acid analogues” (2006):
# Key:
# Format in all cases: functional
# [1] = tested on: Staphylococcus aureus; assay: Antibacterial activity against Staphylococcus aureus CJ 200
# [2] = tested on: Staphylococcus epidermidis; assay: Antibacterial activity against Staphylococcus epidermidis CK 5
# [3] = tested on: Staphylococcus aureus; assay: Antibacterial activity against Staphylococcus aureus CJ 288
# [4] = tested on: Staphylococcus aureus; assay: Antibacterial activity against Staphylococcus aureus CJ 251
# [5] = tested on: Staphylococcus aureus; assay: Antibacterial activity against Staphylococcus aureus CJ 234 R
# [6] = tested on: Corynebacterium xerosis; assay: Antibacterial activity against Corynebacterium xerosis FF
# [7] = tested on: Staphylococcus aureus; assay: Antibacterial activity against Staphylococcus aureus CJ 247
MIC [1],MIC [2],MIC [3],MIC [4],MIC [5],MIC [6],MIC [7],SMILES
1 µg/mL,4 µg/mL,1 µg/mL,1 µg/mL,1 µg/mL,0.016 µg/mL,–,CC(=O)O[C@H]1C[C@@]2(C)[C@@H](C[C@@H](O)[C@H]3[C@@]4(C)CC[C@@H](O)[C@@H](C)C4CC[C@@]32C)/C1=C(\CCCCc1ccc(N=[N+]=[N-])cc1)C(=O)O (stereo partly specified)
2 µg/mL,1 µg/mL,1 µg/mL,1 µg/mL,1 µg/mL,0.063 µg/mL,–,CC(=O)O[C@H]1C[C@@]2(C)[C@@H](C[C@@H](O)[C@H]3[C@@]4(C)CC[C@@H](O)[C@@H](C)C4CC[C@@]32C)/C1=C(\CCCCc1ccc(C2(C(F)(F)F)N=N2)cc1)C(=O)O (stereo partly specified)
4 µg/mL,1 µg/mL,1 µg/mL,1 µg/mL,1 µg/mL,0.016 µg/mL,1 µg/mL,CC(=O)O[C@H]1C[C@@]2(C)[C@@H](C[C@@H](O)[C@H]3[C@@]4(C)CC[C@@H](O)[C@@H](C)C4CC[C@@]32C)/C1=C(\CCCCc1ccc(C(=O)c2ccccc2)cc1)C(=O)O (stereo partly specified)
0.063 µg/mL,0.063 µg/mL,< 0.063 µg/mL,< 0.063 µg/mL,< 0.063 µg/mL,0.016 µg/mL,0.063 µg/mL,CC(=O)O[C@H]1C[C@@]2(C)[C@@H](C[C@@H](O)[C@H]3[C@@]4(C)CC[C@@H](O)[C@@H](C)[C@@H]4CC[C@@]32C)/C1=C(\CCC=C(C)C)C(=O)O [FUSIDIC ACID]
